# Test results taken from patent US20250290045A1, “SMALL MOLECULES AND METHODS FOR MODULATING TEMPORAL CONTROL OF GELATION AND HYDROGEL MECHANICS” (The Board of Trustees of the Leland Stanford Junior …, priority 2022, published 2025).
# Where “and” joins values, the source holds several entries; their conditions need not be identical. Identical values can stand only once. Entries after “also recorded” stand apart in the source; their conditions may differ.
# How the values were obtained:
# [1] = Storage modulus of HELP hydrogel with competitor, oscillatory shear rheology; format: physicochemical; conditions: for HELP modulus: 0 mM control ~3 kPa; for storage modulus (G) of HELP hydrogel, dose response: FIG. 11C, D, increasing competitor concentration, n=3; for fold change in modulus: HELP system, relative to no competitor
# Procedure: The term “storage modulus” as used herein may be used interchangeably with the term “stiffness”. Storage modulus refers to the ratio of the elastic stress to strain and indicates a material's ability to store energy. The storage modulus may be measured using oscillatory shear rheology
# The storage modulus of the HELP hydrogels were measured using oscillatory shear rheology.
# The HELP hydrogel composition was 1 wt % ELP-Hydrazine (fully modified) and 1 wt % HA-Aldehyde (12% modified). Hydrazinoacetic acid was added to HELP hydrogels in four separate final concentrations, 0 mM, 5 mM, 10 mM and 20 mM and the storage modulus was measured over the course of 30 minutes.
# The catalyst agent was 2-(Aminomethyl)benzimidazole and the competitor agent was butyraldehyde. The competitor agent was added at HELP hydrogels at a final concentration of 10 mM and the catalyst agent was added to a final concentration of 0.10 and 25 mM. The composition of the HELP hydrogel was 2 wt % ELP-Hydrazine (fully modified) and 1 wt % HA-Benzaldehyde (30% modified).
# To initially assess the impact of a competitor on hydrogel stiffness, it was proposed that the effect on crosslinking density will depend upon the relative strength of the two competing reactions: (1) crosslinking-site and competitor and (2) crosslinking reaction (FIG. 11A). It was predict that as the relative strength of the competitor reaction (Keq^1) to crosslinking reaction (Keq^2) increases, there will be a greater disruption of crosslinks. To validate this, the impact of competitor Keq on the modulus of HELP formed from precursor solutions of HA-BZA and ELP-HYD at a 1:1 BZA to HYD ratio was determined. To minimize off-target reactions, competitors were added to the precursors solution that has the same functionality, i.e., hydrazine competitors added to ELP-HYD, aldehyde competitors added to HA-BZA. At 10 mM of competitor, which represents a ratio of 4:3 of competitor to crosslinking sites, all competitors led to a significant decrease in the HELP modulus compared to the 0 mM control (FIG. 11B). Based upon the hypothesis that the relative strength of the reactions will dictate crosslinking disruption, a larger decrease in modulus with competitors that result in an aromatic hydrazone (Keq^1/Keq^2˜10^0), double aromatic hydrazone (Keq^1/Keq^2˜10^1) and alkyl hydrazone (Keq^1/Keq^2˜10^2) should be seen.
# The hydrogel modulus response to increasing concentrations of competitors was next examined. The decrease in modulus is dependent upon the concentration of the competitor. To examine this dose-dependent response, the competitors with the lowest (HydAA, aromatic hydrazone) and highest (Butanal, alkyl hydrazone) Keq were selected. Increasing the concentration of HydAA from 5, 10, and 20 mM further reduced the crosslinking density and modulus (2.3, 1.8, 1.3 kPa) in a concentration dependent manner (FIG. 11C). A similar response with Butanal was seen as we increase the concentration from 5 to 10 mM (FIG. 11D).
# [2] = Theoretical half-time to equilibrium of the competitor reaction; conditions: 10 mM; calculated from kinetic reaction parameters
# Procedure: Using the kinetic reaction parameters, the theoretical half-time (t1/2) to was calculated to reach equilibrium of the competitor reaction at a concentration of 10 mM (FIG. 12C). […] This is consistent with the rationale that Butanal increases the gelation time because it is capable of rapidly reacting with the crosslinking sites, preventing them from participating in gelation. […] Using a simplified half-time model of just the competitor reaction, the user is able to qualitatively capture the measured gelation times of the complex competitor and crosslinking hydrogel system.
# [3] = Hydrazone reaction rates of competitors with model reactants, UV spectroscopy; format: physicochemical; conditions: for k1 (forward reaction rate) / k−1 (×10^−4) (reverse reaction rate): 50 μM competitor and 50 μM model reactant (BZA or HydAA), saline solution, 25° C., mean (standard deviation), n = 4; for k−1 / k1: unit not given
# Procedure: To quantify the extent that side groups impact reaction parameters, the forward (k1) and reverse (k−1) reaction rates were measured for each competitor at 50 μM (Table 2). For these reactions, the complementary reactant was chosen to be 50 μM of either benzaldehyde (BZA) or hydrazinoacetic acid (HydAA), because they are the crosslinking functionalities of HELP, and can provide key insight into DCC interactions without the complexity of the full HA and ELP polymers. (Winne, Leibler et al. 2019) The formation of a hydrazone bond was observed via absorbance with UV spectroscopy and converted to a concentration over time. An analytical solution to a second order reaction rate, assuming equal concentrations of reactants, was fit to the concentration as a function of time. (Dirksen, Dirksen et al. 2006, Mckinnon, Domaille et al. 2014)
# [4] = Gelation time of HELP hydrogel with competitor; format: physicochemical; conditions: for gelation time: 0 mM 42.3±5.5 s; for effect on gelation time of HELP hydrogel: FIG. 12A, B, n=3-4, one-way ANOVA
# Procedure: The HELP hydrogel composition was 2 wt % ELP-Hydrazine (fully modified) and 1 wt % HA-Benzaldehyde (30% modified).
# Based upon the observed and predicted effect of the competitor on hydrogel modulus, it was reasoned that transient disruption of crosslinking would alter gelation kinetics. The competitor kinetics delays the time to reach a percolated polymer network in a dose-dependent manner. Addition of a high concentration (20 mM) of a relatively slow reacting competitor Keq competitor (HydAA, k1˜10^−1, Keq˜ 10^3) results in a modest and nonsignificant increase in gelation time (tg=48.3±3.1 s), though it softened the hydrogel modulus from ˜3 kPa to 1.3 kPa. (FIG. 12A). […] The difference in gelation times can be attributed to the difference in forward reaction rate and equilibrium constants of the competitors, which both differ by over 2 orders of magnitude between Butanal and HydAA.
# [5] = HELP hydrogel homogeneity by fluorescent dye distribution; format: physicochemical; conditions: 10 mM competitor vs rapidly gelling HELP without competitor; stiff (~3.5 kPa) HELP
# Procedure: We propose that by using a competitor to increase gelation times, we can overcome the limitations of rapidly gelling hydrazone-crosslinked HELP. We compared the macroscopic structure of a stiff (˜3.5 kPa) HELP formulation with and without Butanal. Without a competitor, the hydrogel rapidly gelled, resulting in a heterogenous hydrogel with nonuniform distribution of polymer. However, addition of 10 mM Butanal allowed for adequate mixing of the polymers and a homogenous hydrogel (FIG. 12E). To quantitatively evaluate the heterogeneity of HELP hydrogels with or without a competitor, we added a fluorescent dye and compared the spatial distribution of the fluorescent signal. […] By using a rapidly reaction competitor to slow down gelation kinetics, we have developed a solution to the challenge of inhomogeneous DCC hydrogels, and produced a uniform HELP hydrogel.
# [6] = 10 mM competitor, HA-BZA and ELP-HYD at 1:1 BZA to HYD
HELP modulus ([1]; 5 mM competitor),"HELP modulus [1, 6]","storage modulus (G) of HELP hydrogel, dose response [1]",fold change in modulus [1],gelation time ([4]; 10 mM competitor),SMILES,theoretical half-time (t1/2) to reach equilibrium of the competitor reaction [2],k1 (forward reaction rate) [3],k−1 (×10^−4) (reverse reaction rate) [3],effect on gelation time of HELP hydrogel [4],k−1 [3],k1 [3],also measured
1.75 kPa,0.29±0.2 kPa,dose-dependent decrease,0.1 fold,92.3 ± 5.1 s,"CCCC=O [Butyraldehyde, butyraldehyde]",0.0265 ± 0.00233 min,59.9 (5.49) M^−1 s^−1,4.49 (1.07) ×10^−4 s^−1,significantly increases gelation time in a dose-dependent manner,4.49±1.07×10^−4,–,"HELP hydrogel formation ([1]; 20 mM competitor (2.7× crosslinking sites), listed as Butanal): disrupt formation of a hydrogel; also recorded: inhibition of HELP gel formation; increase of gelation time ([4]; 5 mM competitor): ~1.7 fold; gelation time ([4]; 5 mM competitor): 74.8 ± 10.0 s; k1 ([3]; listed as Butanal): 59.9±5.49; k1 ([3]; listed as Butunal): ~10^1; variance of fluorescence intensity (hydrogel heterogeneity) [5]: significantly lower variance"
2.3 kPa,–,dose-dependent decrease,0.6 fold,did not significantly impact gelation,"NNCC(=O)O [Hydrazinoacetic acid, hydrazinoacetic acid]",4.23 ± 1.33 min,0.276 (0.070) M^−1 s^−1,1.71 (0.280) ×10^−4 s^−1,does not significantly increase,~10^−4,~10^−1,"HELP modulus ([1]; 10 mM competitor, HA-BZA and ELP-HYD at 1:1 BZA to HYD, listed as HydAA): 1.75±0.3 kPa and 1.8 kPa and 1.75 kPa; HELP modulus ([1]; 20 mM competitor): 1.3 kPa; storage modulus of HELP hydrogels, dose response ([1]; FIG. 2, 0, 5, 10 and 20 mM): reduced the storage modulus in a dose dependent manner; time to reach the plateau storage modulus ([1]; FIG. 3, 1 wt % ELP-Hydrazine, 1 wt % HA-Aldehyde (12% modified), 0, 5, 10, 20 mM): increased the time to reach the plateau storage modulus; storage modulus of HELP hydrogels over time ([1]; FIG. 3, 1 wt % ELP-Hydrazine, 1 wt % HA-Aldehyde (12% modified), 0, 5, 10, 20 mM, 30 minutes): reduced the storage modulus of HELP hydrogels in a dose dependent manner; gelation time (tg) ([4]; 20 mM HydAA (slow-reacting competitor)): 48.3 ± 3.1 s; gelation time, dose response ([4]; FIG. 4, 0, 5, 10 mM, 2 wt % ELP-Hydrazine, 1 wt % HA-Benzaldehyde (30% modified)): increased the gelation time in a dose dependent manner; increase of gelation time ([4]; FIG. 4, 10 mM, 2 wt % ELP-Hydrazine, 1 wt % HA-Benzaldehyde (30% modified)): approximately 30 seconds"
–,0.86±0.04 kPa,–,–,–,"NNc1ccc(C(=O)O)cc1 [Hydrazinobenzoic acid, 4-hydrazinobenzoic acid]",–,2.10 (0.40) M^−1 s^−1,1.00 (0.077) ×10^−4 s^−1,–,1.00±0.077×10^−4,2.10±0.400,–

# Further lines, the compound ahead of its results:
SMILES,HELP modulus ([1]; 5 mM competitor),"HELP modulus [1, 6]","storage modulus (G) of HELP hydrogel, dose response [1]",fold change in modulus [1],gelation time ([4]; 10 mM competitor),theoretical half-time (t1/2) to reach equilibrium of the competitor reaction [2],k1 (forward reaction rate) [3],k−1 (×10^−4) (reverse reaction rate) [3],effect on gelation time of HELP hydrogel [4],k−1 [3],k1 [3],also measured
NCc1nc2ccccc2[nH]1 [2-(Aminomethyl)benzimidazole],–,–,–,–,–,–,–,–,–,–,–,"storage modulus of HELP hydrogels with catalyst and competitor ([1]; FIG. 9, catalyst 0.10 and 25 mM with 10 mM butyraldehyde, 24 hours diffusion into preformed hydrogel, 2 wt % ELP-Hydrazine, 1 wt % HA-Benzaldehyde (30% modified)): reduced in a dose-dependent manner"
"O=Cc1ccccc1 [Benzaldehyde, benzaldehyde]",–,–,–,–,–,4.23 ± 1.33 min,0.276 (0.070) M^−1 s^−1,1.71 (0.280) ×10^−4 s^−1,–,–,–,–
"NNCCO [Hydrazinoethanol, 2-hydrazinoethanol]",–,–,–,–,–,–,0.690 (0.301) M^−1 s^−1,1.12 (0.469) ×10^−4 s^−1,–,~10^−4,~10^−1,–
